Test results published in patent US20260021114A1, “COMPOSITION FOR LOWERING BLOOD LIPIDS AND CHOLESTEROL, PREPARATION METHOD THEREFOR, AND APPLICATION THEREOF” (Health and Happiness (H&H) Hong Kong Limited, priority 2022, published 2026).
Marks after values point to notes of the source that are not given here.

Columns and labels:
hmgcra gene = assay: Effect on the hmgcra gene expression levels (q-PCR); type: in vivo, zebrafish
Method: 5 dpf melanin allele mutant translucent Albino strain zebrafish were randomly selected and put in beakers, with 30 fish per beaker. The atorvastatin calcium and samples (see Table 7 for final concentration) were administered by dissolving in water respectively, and the normal control group and the model control group were set at the same time, and the volume of each beaker was 25 mL. Except for the normal control group, all other experimental groups were given high-fat feed in water (the high-fat feed was glucose with a final concentration of 3 wt % and egg yolk powder with a final concentration of 1.5 mg/mL) to establish a zebrafish hyperlipidemia model. The samples were co-processed with high-fat feed for 15 hours (co-processed for 7.5 hours per day). After treatment at 28° C. for 48 hours, total RNA of 2.00 μg zebrafish sample was taken, and 20.0 μL cDNA was synthesized according to the instructions of the cDNA first chain synthesis kit. The expression of β-actin and hmgcra genes was detected by q-PCR (see Table 6 for the sequence of primers). The RNA phase of hmgcra gene was calculated using […] as the internal reference of gene expression. Statistical processing results are expressed as mean +SE. Statistical analysis was performed with SPSS26.0 software, p<0.05 indicated a statistically significant difference.

[1] = system: zebrafish hyperlipidemia model; assay: Efficacy evaluation of lowering triglyceride (Oil Red O staining of tail blood vessels); type: in vivo
Method: 5 dpf melanin allele mutant translucent Albino strain zebrafish were randomly selected and put in beakers, with 30 fish per beaker. The atorvastatin calcium and samples (see Table 3 for final concentration) were administered by dissolving in water respectively, and the normal control group and the model control group were set at the same time, and the volume of each beaker was 25 mL. Except for the normal control group, all other experimental groups were given high-fat feed in water (the high-fat feed was glucose with a final concentration of 3wt % and egg yolk powder with a final concentration of 1.5 mg/mL) to establish a zebrafish hyperlipidemia model. The samples were co-processed with high-fat feed for 15 hours (co-processed for 7.5 hours per day and kept in fish farming water at 28° C. for the rest of the day). After treatment at 28° C. for 48 hours, Oil Red O was given for whole-body fat staining. After the staining, 10 zebrafish from each experimental group were randomly selected and photographed under a dissection microscope. […] The staining intensity of the zebrafish tail blood vessels was analyzed, and the efficacy of atorvastatin calcium and sample in lowering triglycerides was evaluated based on the statistical analysis results of this indicator. Statistical processing results are expressed as mean +SE. […]

[2] = system: zebrafish hyperlipidemia model; assay: Efficacy evaluation of lowering cholesterol (cholesterol fluorescent probe, tail blood vessels); type: in vivo
Method: 5 dpf melanin allele mutant translucent Albino strain zebrafish were randomly selected and put in beakers, with 30 fish per beaker. The atorvastatin calcium and samples (see Table 4 for final concentration) were administered by dissolving in water respectively, and the normal control group and the model control group were set at the same time, and the volume of each beaker was 25 mL. Except for the normal control group, all other experimental groups were given high-fat feed in water (the high-fat feed was glucose with a final concentration of 3wt % and egg yolk powder with a final concentration of 1.5 mg/mL) to establish a zebrafish hyperlipidemia model. The samples were co-processed with high-fat feed for 15 hours (co-processed for 7.5 hours per day and kept in fish farming water at 28° C. for the rest of the day). After treatment at 28° C. for 32 hours, cholesterol fluorescent probe (final concentration 1 mg/mL) was administered. After continuing the treatment for 16 hours, 10 zebrafish from each experimental group were randomly selected and photographed under a fluorescence microscope. […] The cholesterol fluorescence intensity of the zebrafish tail blood vessels was analyzed, and the efficacy lowering cholesterol of the samples was evaluated by the statistical analysis results of this index. Statistical processing results are expressed as mean±SE. […]

model zebrafish = assay: MTC determination in zebrafish hyperlipidemia model; type: in vivo
Method: 5 dpf melanin allele mutant translucent Albino strain zebrafish were randomly selected and put in beakers, with 30 fish per beaker (experimental group). The atorvastatin calcium and samples (see Table 2 for final concentration) were administered by dissolving in water respectively, and the normal control group and the model control group were set at the same time, and the volume of each beaker was 25 mL. Except for the normal control group, all other experimental groups were given high-fat feed in water (the high-fat feed was glucose with a final concentration of 3 wt % and egg yolk powder with a final concentration of 1.5 mg/mL) to establish a zebrafish hyperlipidemia model. The samples were co-processed with high-fat feed for 15 hours (co-processed for 7.5 hours per day and kept in fish farming water at 28° C. for the rest of the day). During sample processing, the number of dead zebrafish in each experimental group was counted every day and removed in time. After treatment at 28° C. for 48 hours, the minimum toxic concentration (MTC) of atorvastatin calcium and samples to model zebrafish was determined.

`CC(C)c1c(C(=O)Nc2ccccc2)c(-c2ccccc2)c(-c2ccc(F)cc2)n1CC[C@@H](O)C[C@@H](O)CC(=O)[O-].CC(C)c1c(C(=O)Nc2ccccc2)c(-c2ccccc2)c(-c2ccc(F)cc2)n1CC[C@@H](O)C[C@@H](O)CC(=O)[O-].[Ca+2]` [Atorvastatin calcium] was tested, and the “Relative expression of hmgcra gene (mean ± SE)” value (hmgcra gene; 11.6 μg/mL, 48 hours, β-actin internal reference, model control = 1) was 0.542 ± 0.003***^a, the “reduction of hmgcra gene expression levels compared with the model control group (in words)” value (hmgcra gene; P<0.05 vs model control group) was “significantly reduce the hmgcra gene expression levels” and the “Triglyceride content (Unit in pixels, mean ± SE)” value ([1]; 11.6 μg/mL, 48 hours, tail blood vessels staining intensity) was 11104 ± 588***^c pixels. The “lowering of triglycerides compared with the model control group (in words)” value ([1]; P<0.05 vs model control group) was “significantly lower triglycerides”, the “Cholesterol content (Unit in pixels, mean ± SE)” value ([2]; 11.6 μg/mL, 48 hours, tail blood vessels cholesterol fluorescence intensity) was 122765 ± 11371 pixels and the “lowering of cholesterol compared with the model control group (in words)” value ([2]; P<0.05 vs model control group) was “significantly lower cholesterol”. For the same compound, the “Death rates (%)” value (model zebrafish; 11.6 μg/mL, n = 30, 48 hours) was 0%, the “Number of deaths (fish)” value (model zebrafish; 11.6 μg/mL, n = 30, 48 hours) was 0 fish and the MTC (model zebrafish; model zebrafish, high-fat feed, 28° C. for 48 hours) was 11.6 µg/mL.
